Measured values from PubChem BioAssay (NCI).
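Exposure lasted 48 hours, with cells grown in 96-well plates and compounds tested at five concentrations. At the GI50, growth is halved. TGI: concentration producing complete growth inhibition.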

Legend:
Assay in all cases: DTP human tumour cell line panel, 48 h
HCT-15 colon = test system: HCT-15 colon
CCRF-CEM leukemia = test system: CCRF-CEM leukemia
UACC-257 melanoma = test system: UACC-257 melanoma
NCI-H23 lung = test system: NCI-H23 lung
COLO 205 colon = test system: COLO 205 colon
OVCAR-3 ovarian = test system: OVCAR-3 ovarian
SF-539 CNS = test system: SF-539 CNS
K-562 leukemia = test system: K-562 leukemia
MOLT-4 leukemia = test system: MOLT-4 leukemia
786-0 renal = test system: 786-0 renal
OVCAR-4 ovarian = test system: OVCAR-4 ovarian
HOP-92 NSCLC = test system: HOP-92 NSCLC
IGROV1 ovarian = test system: IGROV1 ovarian
HOP-62 NSCLC = test system: HOP-62 NSCLC
SK-MEL-28 melanoma = test system: SK-MEL-28 melanoma
SK-OV-3 ovarian = test system: SK-OV-3 ovarian
EKVX NSCLC = test system: EKVX NSCLC
KM12 colon = test system: KM12 colon
T-47D breast = test system: T-47D breast
NCI-H226 lung = test system: NCI-H226 lung
A549 NSCLC = test system: A549 NSCLC
SR leukemia = test system: SR leukemia
MALME-3M melanoma = test system: MALME-3M melanoma
LOX IMVI melanoma = test system: LOX IMVI melanoma
RPMI-8226 leukemia = test system: RPMI-8226 leukemia
SF-268 CNS = test system: SF-268 CNS
U251 CNS = test system: U251 CNS
SW-620 colon = test system: SW-620 colon
A498 renal = test system: A498 renal
ACHN renal = test system: ACHN renal
HT29 colon = test system: HT29 colon
NCI-H522 lung = test system: NCI-H522 lung
SN12C renal = test system: SN12C renal
M14 melanoma = test system: M14 melanoma
TK-10 renal = test system: TK-10 renal
RXF 393 renal = test system: RXF 393 renal
DU-145 prostate = test system: DU-145 prostate
SNB-19 CNS = test system: SNB-19 CNS
CAKI-1 renal = test system: CAKI-1 renal
SF-295 CNS = test system: SF-295 CNS
HS 578T breast = test system: HS 578T breast
MDA-MB-231 breast = test system: MDA-MB-231 breast
BT-549 breast = test system: BT-549 breast
UO-31 renal = test system: UO-31 renal
SK-MEL-2 melanoma = test system: SK-MEL-2 melanoma
NCI-H460 lung = test system: NCI-H460 lung
HCT-116 colon = test system: HCT-116 colon
MDA-MB-435 = test system: MDA-MB-435
HL-60(TB) leukemia = test system: HL-60(TB) leukemia
SK-MEL-5 melanoma = test system: SK-MEL-5 melanoma
UACC-62 melanoma = test system: UACC-62 melanoma
MCF7 breast = test system: MCF7 breast
SNB-75 CNS = test system: SNB-75 CNS
OVCAR-5 ovarian = test system: OVCAR-5 ovarian
NCI/ADR-RES ovarian = test system: NCI/ADR-RES ovarian
PC-3 prostate = test system: PC-3 prostate
HCC-2998 colon = test system: HCC-2998 colon
OVCAR-8 ovarian = test system: OVCAR-8 ovarian

In the case of `OC(C(=Nc1ccccc1)c1ccccc1)c1ccccc1` (stereo not given), the TGI (HCT-15 colon) is reported as > 100000 nM, the TGI (CCRF-CEM leukemia) is reported as 27900 nM and the TGI (UACC-257 melanoma) is reported as 5560 nM. For the same compound, the TGI (NCI-H23 lung) was 40400 nM, the TGI (COLO 205 colon) was 20900 nM and the TGI (OVCAR-3 ovarian) was 14300 nM. The TGI (SF-539 CNS) was 25300 nM, the TGI (K-562 leukemia) was > 100000 nM and the TGI (MOLT-4 leukemia) was 55100 nM. The TGI (786-0 renal) was 41900 nM, the TGI (OVCAR-4 ovarian) was 51800 nM and the TGI (HOP-92 NSCLC) was 21000 nM. The TGI (IGROV1 ovarian) was 51700 nM, the TGI (HOP-62 NSCLC) was 39800 nM and the TGI (SK-MEL-28 melanoma) was 15200 nM. It also gave a TGI (SK-OV-3 ovarian) of 55800 nM, a TGI (EKVX NSCLC) of 9350 nM and a TGI (KM12 colon) of 10400 nM. For the same compound, the TGI (T-47D breast) was > 100000 nM, the TGI (NCI-H226 lung) was 34100 nM and the TGI (A549 NSCLC) was 33600 nM. For the same compound, the TGI (SR leukemia) was 10700 nM, the TGI (MALME-3M melanoma) was 7010 nM and the TGI (LOX IMVI melanoma) was 38200 nM. It also gave a TGI (RPMI-8226 leukemia) of 71100 nM, a TGI (SF-268 CNS) of 17400 nM and a TGI (U251 CNS) of 15600 nM. The TGI (SW-620 colon) was 66500 nM, the TGI (A498 renal) was 33600 nM and the TGI (ACHN renal) was 31500 nM. It also gave a TGI (HT29 colon) of 25600 nM, a TGI (NCI-H522 lung) of 18900 nM and a TGI (SN12C renal) of 25300 nM. For the same compound, the TGI (M14 melanoma) was 39100 nM, the TGI (TK-10 renal) was 9530 nM and the TGI (RXF 393 renal) was 26100 nM. It also gave a TGI (DU-145 prostate) of 21700 nM, a TGI (SNB-19 CNS) of 31600 nM and a TGI (CAKI-1 renal) of 30300 nM. For the same compound, the TGI (SF-295 CNS) was 26300 nM, the TGI (HS 578T breast) was 7110 nM and the TGI (MDA-MB-231 breast) was 39300 nM. The TGI (BT-549 breast) was 9510 nM, the TGI (UO-31 renal) was 39800 nM and the TGI (SK-MEL-2 melanoma) was 6470 nM. The TGI (NCI-H460 lung) was 34300 nM, the TGI (HCT-116 colon) was 31800 nM and the TGI (MDA-MB-435) was 11800 nM. It also gave a TGI (HL-60(TB) leukemia) of 56100 nM, a TGI (SK-MEL-5 melanoma) of 5870 nM and a TGI (UACC-62 melanoma) of 15000 nM. For the same compound, the TGI (MCF7 breast) was 45400 nM, the TGI (SNB-75 CNS) was 25400 nM and the TGI (OVCAR-5 ovarian) was 82300 nM. The TGI (NCI/ADR-RES ovarian) was 65700 nM.
For `Nc1nc(Nc2ccc3c(c2)CCC(N2CCCC2)CC3)nn1-c1cc2c(nn1)-c1ccccc1CCC2` (stereo not given), the GI50 (HCT-15 colon) was 839 nM, the TGI (HCT-15 colon) was 2140 nM and the GI50 (CCRF-CEM leukemia) was 1240 nM. It also gave a TGI (CCRF-CEM leukemia) of 4670 nM, a GI50 (UACC-257 melanoma) of 1700 nM and a TGI (UACC-257 melanoma) of 3360 nM. It also gave a GI50 (NCI-H23 lung) of 1710 nM, a TGI (NCI-H23 lung) of 3720 nM and a GI50 (COLO 205 colon) of 1560 nM. For the same compound, the TGI (COLO 205 colon) was 3110 nM, the GI50 (OVCAR-3 ovarian) was 1400 nM and the TGI (OVCAR-3 ovarian) was 2930 nM. The GI50 (SF-539 CNS) was 787 nM, the TGI (SF-539 CNS) was 2100 nM and the GI50 (K-562 leukemia) was 701 nM. It also gave a TGI (K-562 leukemia) of 2480 nM, a GI50 (MOLT-4 leukemia) of 681 nM and a TGI (MOLT-4 leukemia) of 2860 nM. For the same compound, the GI50 (786-0 renal) was 1100 nM, the TGI (786-0 renal) was 2490 nM and the GI50 (OVCAR-4 ovarian) was 1150 nM. It also gave a TGI (OVCAR-4 ovarian) of 2560 nM, a GI50 (HOP-92 NSCLC) of 234 nM and a TGI (HOP-92 NSCLC) of 1690 nM. The GI50 (IGROV1 ovarian) was 455 nM, the TGI (IGROV1 ovarian) was 1810 nM and the GI50 (HOP-62 NSCLC) was 1500 nM. It also gave a TGI (HOP-62 NSCLC) of 3110 nM, a GI50 (SK-MEL-28 melanoma) of 1610 nM and a TGI (SK-MEL-28 melanoma) of 3010 nM. The GI50 (SK-OV-3 ovarian) was 895 nM, the TGI (SK-OV-3 ovarian) was 2220 nM and the GI50 (KM12 colon) was 1020 nM. The TGI (KM12 colon) was 2730 nM, the GI50 (T-47D breast) was 1750 nM and the TGI (T-47D breast) was 3950 nM. The GI50 (A549 NSCLC) was 1320 nM, the TGI (A549 NSCLC) was 2920 nM and the GI50 (SR leukemia) was 420 nM. For the same compound, the TGI (SR leukemia) was 2370 nM, the GI50 (MALME-3M melanoma) was 1420 nM and the TGI (MALME-3M melanoma) was 3090 nM. It also gave a GI50 (LOX IMVI melanoma) of 1340 nM, a TGI (LOX IMVI melanoma) of 2690 nM and a GI50 (RPMI-8226 leukemia) of 1400 nM. For the same compound, the TGI (RPMI-8226 leukemia) was 3810 nM, the GI50 (SF-268 CNS) was 1250 nM and the TGI (SF-268 CNS) was 3070 nM. It also gave a GI50 (U251 CNS) of 1090 nM, a TGI (U251 CNS) of 2390 nM and a GI50 (SW-620 colon) of 1310 nM. It also gave a TGI (SW-620 colon) of 3170 nM, a GI50 (A498 renal) of 274 nM and a TGI (A498 renal) of 1240 nM. For the same compound, the GI50 (ACHN renal) was 346 nM, the TGI (ACHN renal) was 1590 nM and the GI50 (HT29 colon) was 667 nM. For the same compound, the TGI (HT29 colon) was 2600 nM, the GI50 (NCI-H522 lung) was 1710 nM and the TGI (NCI-H522 lung) was 3270 nM. The GI50 (SN12C renal) was 378 nM, the TGI (SN12C renal) was 1810 nM and the GI50 (M14 melanoma) was 957 nM. The TGI (M14 melanoma) was 2270 nM, the GI50 (TK-10 renal) was 1140 nM and the TGI (TK-10 renal) was 2610 nM. For the same compound, the GI50 (PC-3 prostate) was 629 nM, the TGI (PC-3 prostate) was 2140 nM and the GI50 (RXF 393 renal) was 631 nM. The TGI (RXF 393 renal) was 1870 nM, the GI50 (DU-145 prostate) was 1040 nM and the TGI (DU-145 prostate) was 2360 nM. The GI50 (SNB-19 CNS) was 1600 nM, the TGI (SNB-19 CNS) was 3400 nM and the GI50 (CAKI-1 renal) was 531 nM. The TGI (CAKI-1 renal) was 2050 nM, the GI50 (SF-295 CNS) was 1850 nM and the TGI (SF-295 CNS) was 3540 nM. For the same compound, the GI50 (HS 578T breast) was 1080 nM, the TGI (HS 578T breast) was 3660 nM and the GI50 (MDA-MB-231 breast) was 1460 nM. It also gave a TGI (MDA-MB-231 breast) of 3040 nM, a GI50 (BT-549 breast) of 1520 nM and a TGI (BT-549 breast) of 3010 nM. The GI50 (UO-31 renal) was 668 nM, the TGI (UO-31 renal) was 2130 nM and the GI50 (SK-MEL-2 melanoma) was 1040 nM. For the same compound, the TGI (SK-MEL-2 melanoma) was 2530 nM, the GI50 (NCI-H460 lung) was 1080 nM and the TGI (NCI-H460 lung) was 2630 nM. For the same compound, the GI50 (HCT-116 colon) was 754 nM, the TGI (HCT-116 colon) was 2020 nM and the GI50 (MDA-MB-435) was 1320 nM. It also gave a TGI (MDA-MB-435) of 2740 nM, a GI50 (HCC-2998 colon) of 1550 nM and a TGI (HCC-2998 colon) of 2970 nM. The GI50 (HL-60(TB) leukemia) was 1010 nM, the TGI (HL-60(TB) leukemia) was 2750 nM and the GI50 (SK-MEL-5 melanoma) was 1450 nM. It also gave a TGI (SK-MEL-5 melanoma) of 2780 nM, a GI50 (UACC-62 melanoma) of 1500 nM and a TGI (UACC-62 melanoma) of 3070 nM. For the same compound, the GI50 (OVCAR-8 ovarian) was 1140 nM, the TGI (OVCAR-8 ovarian) was 2850 nM and the GI50 (MCF7 breast) was 1350 nM. The TGI (MCF7 breast) was 2790 nM, the GI50 (SNB-75 CNS) was 792 nM and the TGI (SNB-75 CNS) was 2180 nM. For the same compound, the GI50 (OVCAR-5 ovarian) was 1390 nM and the TGI (OVCAR-5 ovarian) was 2760 nM.
